This is an account of results in PubChem BioAssay AID1259411 (Chemical Carcinogenesis Research Information System (CCRIS), 2018).

The source made the active and inactive calls. How the calls were made is not given here.

The data set has as its system rodent carcinogenicity bioassays, tumor incidence. Description: CCRIS carcinogenicity studies. In short, it runs like this:
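NCI-built, expert-reviewed records of carcinogenicity and related test outcomes (mutagenicity, tumor promotion/inhibition) compiled from published and report sources, historical span 1985-2011, not updated.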

Regarding `Nc1ccc2cc3ccc(N)cc3nc2c1`, the carcinogen call reads like this: (Species: MOUSE, Strain/Sex: B6C3F1/FEMALE, Route: ORAL, Dose: 0, 200, 400 PPM IN DIET FOR 104 WK (STUDY DURATION: 104 WK), Dose: 0, 200, 400 PPM IN DIET FOR 104 WK (STUDY DURATION: 104 WK), Tumor Site: Type of Lesion: LIVER: HEPATOCELLULAR CARCINOMA) “equivocal”; (Species: MOUSE, Strain/Sex: B6C3F1/MALE, Route: ORAL, Dose: 0, 200, 400 PPM IN DIET FOR 104 WK (STUDY DURATION: 104 WK), Dose: 0, 200, 400 PPM IN DIET FOR 104 WK (STUDY DURATION: 104 WK), Tumor Site: Type of Lesion: LIVER: HEPATOCELLULAR CARCINOMA) “equivocal”; (Species: RAT, Strain/Sex: F344/FEMALE, Route: ORAL, Dose: 0, 300, 600 PPM IN DIET, Dose: 0, 300, 600 PPM IN DIET) “inactive; negative”; (Species: RAT, Strain/Sex: F344/MALE, Route: ORAL, Dose: 0, 300, 600 PPM IN DIET FOR 109 WK (STUDY DURATION: 109 WK), Dose: 0, 300, 600 PPM IN DIET FOR 109 WK (STUDY DURATION: 109 WK), Tumor Site: Type of Lesion: INTESTINE: LEIOMYOSARCOMA OR ADENOCARCINOMA OR SARCOMA) “equivocal”.
For the compound `Oc1cccc2cccnc12`, the carcinogen call reads like this: (Species: MOUSE, Strain/Sex: B6C3F1/FEMALE, Route: ORAL, Dose: 0, 1500, 3000 PPM IN DIET FOR 103 WK, Dose: 0, 1500, 3000 PPM IN DIET FOR 103 WK) “inactive; negative”; (Species: MOUSE, Strain/Sex: B6C3F1/MALE, Route: ORAL, Dose: 0, 1500, 3000 PPM IN DIET FOR 103 WK, Dose: 0, 1500, 3000 PPM IN DIET FOR 103 WK) “inactive; negative”; (Species: RAT, Strain/Sex: F344/FEMALE, Route: ORAL, Dose: 0, 1500, 3000 PPM IN DIET FOR 103 WK, Dose: 0, 1500, 3000 PPM IN DIET FOR 103 WK) “inactive; negative”; (Species: RAT, Strain/Sex: F344/MALE,FEMALE, Route: ORAL, Dose: 0.1% IN DIET FOR 2 YR) “inactive; negative”; (Species: RAT, Strain/Sex: F344/MALE, Route: ORAL, Dose: 0, 1500, 3000 PPM IN DIET FOR 103 WK, Dose: 0, 1500, 3000 PPM IN DIET FOR 103 WK) “inactive; negative”.
On to `O=NN1CCOC1=O`, for which the carcinogen call (Species: HAMSTER, Strain/Sex: SYRIAN/FEMALE, Route: GAVAGE, Dose: 0, 12 MG/ML ((0.2 ML OF A SOLUTION IN ETHYL ACETATE/CORN OIL (1:2)) 1/WK FOR 30 WK (STUDY DURATION: LIFE SPAN), Tumor Site: Type of Lesion: FORESTOMACH: SQUAMOUS CELL CARCINOMA OR ADENOMA) is “active; positive” and the carcinogen call (Species: RAT, Strain/Sex: F344/FEMALE, Route: INTRAVESICULAR, Dose: 0, 2.4 MG 2/WK FOR 8 WK (STUDY DURATION: LIFETIME), Tumor Site: Type of Lesion: BLADDER: TUMOR) was “active; positive”.
Turning to `C=CCc1ccc(OC)cc1`, the carcinogen call is “active; positive” (Species: MOUSE, Strain/Sex: B6C3F1/MALE, Route: INTRAPERITONEAL, Dose: 0, 4.75 UMOL TOTAL DOSE, D 1,8,15 AND 22 AFTER BIRTH, AUTOPSIED AT 13-18 MO, Dose: 0, 4.75 UMOL TOTAL DOSE, D 1,8,15 AND 22 AFTER BIRTH, AUTOPSIED AT 13-18 MO, Tumor Site: Type of Lesion: LIVER: HEPATOMA); “active; positive” (Species: MOUSE, Strain/Sex: C3H/MALE, Route: INTRAPERITONEAL, Dose: 0, 9.45 UMOL TOTAL DOSE, D 1,8,15 AND 22 AFTER BIRTH, AUTOPSIED AT 12 MO, Dose: 0, 9.45 UMOL TOTAL DOSE, D 1,8,15 AND 22 AFTER BIRTH, AUTOPSIED AT 12 MO, Tumor Site: Type of Lesion: LIVER: HEPATOMA); “active; positive” (Species: MOUSE, Strain/Sex: CD-1/FEMALE, Route: ORAL, Dose: 0, 0.23, 0.46% IN DIET, FOR 12 MO, Dose: 0, 0.23, 0.46% IN DIET, FOR 12 MO, Tumor Site: Type of Lesion: LIVER: HEPATOMA); “active; positive” (Species: MOUSE, Strain/Sex: CD-1/MALE,FEMALE, Route: GAVAGE, Dose: 0, 25 UMOL/G TOTAL DOSE, 2/WK FOR 5 WK BEGINNING ON D 4 AFTER BIRTH, AUTOPSIED AT 11-14 MO, Dose: 0, 25 UMOL/G TOTAL DOSE, 2/WK FOR 5 WK BEGINNING ON D 4 AFTER BIRTH, AUTOPSIED AT 11-14 MO, Tumor Site: Type of Lesion: LIVER: HEPATOMA); “active; positive” (Species: MOUSE, Strain/Sex: CD-1/MALE, Route: SUBCUTANEOUS, Dose: 0, 0.17, 0.35 UMOL IN 0.025 ML TRIOCTANOIN WITHIN 24 HR AFTER BIRTH THEN 0, 0.47, 0.69 UMOL IN 0.05 ML TRIOCTANOIN ON D, Dose: 0, 0.17, 0.35 UMOL IN 0.025 ML TRIOCTANOIN WITHIN 24 HR AFTER BIRTH THEN 0, 0.47, 0.69 UMOL IN 0.05 ML TRIOCTANOIN ON D, Tumor Site: Type of Lesion: LIVER: HEPATOCELLULAR CARCINOMA); “active; positive” (Species: MOUSE, Strain/Sex: CD-1/MALE, Route: SUBCUTANEOUS, Dose: 0, 4.43, 5.19 UMOL TOTAL DOSE, D 1,8,15 AND 22 AFTER BIRTH, Dose: 0, 4.43, 5.19 UMOL TOTAL DOSE, D 1,8,15 AND 22 AFTER BIRTH, Tumor Site: Type of Lesion: LIVER: HEPATOCELLULAR CARCINOMA). Also, for the setting “Species: Mouse, Strain/Sex: ICR/Female (30 324 day survivors/Group), Route: Intraperitoneal injection, Dose: 150 mg/kg bw a wk for 17 wks, study duration 537 days, Tumor Site: Type of Lesion: Liver: Hepatocellular adenoma and carcinoma”, the carcinogen call was “active; positive (80% incidence). apparent lack of concurrent controls”.
For the compound `COc1ccccc1O`, the carcinogen call (Species: RAT, Strain/Sex: SPRAGUE-DAWLEY/FEMALE, Route: GAVAGE, Dose: 0, 20, 50, 200 MG/KG/D IN 0.5% CARBOXYMETHYLCELLULOSE SUSPENSION FOR 103 WK (STUDY DURATION: 103 WK), Dose: 0, 20, 50, 200 MG/KG/D IN 0.5% CARBOXYMETHYLCELLULOSE SUSPENSION FOR 103 WK (STUDY DURATION: 103 WK)) was “inactive; negative” and the carcinogen call (Species: RAT, Strain/Sex: SPRAGUE-DAWLEY/MALE, Route: GAVAGE, Dose: 0, 20, 50, 200 MG/KG/D IN 0.5% CARBOXYMETHYLCELLULOSE SUSPENSION FOR 103 WK (STUDY DURATION: 103 WK), Dose: 0, 20, 50, 200 MG/KG/D IN 0.5% CARBOXYMETHYLCELLULOSE SUSPENSION FOR 103 WK (STUDY DURATION: 103 WK)) was “inactive; negative”.
Regarding `C=C1C[C@]23C[C@@]1(O)CC[C@H]2[C@@]12C=C[C@H](O)[C@@](C)(C(=O)O1)[C@H]2[C@@H]3C(=O)O`, the carcinogen call is, setting by setting: (Species: MOUSE, Strain/Sex: SWISS/FEMALE, Route: GAVAGE, Dose: 0, 3 PPM IN 0.3 ML PHYSIOLOGICAL SALINE 2/WK FOR 22 MO (STUDY DURATION: 22 MO), Tumor Site: Type of Lesion: BREAST: ADENOCARCINOMA, SKIN: SEBACEOUS ADENOMA) “active; positive”; (Species: MOUSE, Strain/Sex: SWISS/MALE, Route: GAVAGE, Dose: 0, 3 PPM IN 0.3 ML PHYSIOLOGICAL SALINE 2/WK FOR 22 MO (STUDY DURATION: 22 MO), Tumor Site: Type of Lesion: SKIN: SEBACEOUS ADENOMA, LUNG: TUMOR) “active; positive”.
With `ClC1=C(Cl)[C@]2(Cl)[C@H]3[C@H]([C@@H]4C=C[C@H]3C4)[C@@]1(Cl)C2(Cl)Cl`, the carcinogen call was “inactive; negative” (Species: MOUSE, Strain/Sex: B6C3F1/FEMALE, Route: ORAL, Dose: 0, 3, 6 PPM IN DIET FOR 80 WK (STUDY DURATION: 112-113 WK), Dose: 0, 3, 6 PPM IN DIET FOR 80 WK (STUDY DURATION: 112-113 WK)); “active; positive” (Species: MOUSE, Strain/Sex: B6C3F1/MALE, Route: ORAL, Dose: 0, 4, 8 PPM IN DIET FOR 74 WK (STUDY DURATION: 111-112 WK), Dose: 0, 4, 8 PPM IN DIET FOR 74 WK (STUDY DURATION: 111-112 WK), Tumor Site: Type of Lesion: LIVER: HEPATOCELLULAR CARCINOMA); “equivocal” (Species: RAT, Strain/Sex: OSBORNE-MENDEL/FEMALE, Route: ORAL, Dose: 0, 30, 60 PPM IN DIET FOR 80 WK (STUDY DURATION: 112-113 WK), Dose: 0, 30, 60 PPM IN DIET FOR 80 WK (STUDY DURATION: 112-113 WK), Tumor Site: Type of Lesion: THYROID GLAND: FOLLICULAR CELL ADENOMA OR CARCINOMA, ADRENAL GLAND: CORTICAL ADENOMA); “equivocal” (Species: RAT, Strain/Sex: OSBORNE-MENDEL/MALE, Route: ORAL, Dose: 0, 30, 60 PPM IN DIET FOR 74 WK (STUDY DURATION: 111-112 WK), Dose: 0, 30, 60 PPM IN DIET FOR 74 WK (STUDY DURATION: 111-112 WK), Tumor Site: Type of Lesion: THYROID GLAND: FOLLICULAR CELL ADENOMA OR CARCINOMA).
